Measured values: ChEMBL document CHEMBL1201862, “PubChem BioAssay data set” (2004)
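48-hour exposure; five concentrations; linearly interpolated endpoints. GI50: concentration for 50% inhibition of growth.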 Activity calls are given as the source filed them. Rule as the data show it: active = GI50 up to about 1.1 µM and inactive = higher.

How the values were obtained:
Test in all cases: NCI anticancer screen, dose series, 48 h
[1] = tested on: KM-20L2
[2] = tested on: TK-10
[3] = tested on: UACC-257
[4] = tested on: Malme-3M
[5] = tested on: SK-OV-3
[6] = tested on: NCI-H460
[7] = tested on: COLO 205
[8] = tested on: LOX IMVI
[9] = tested on: HOP-62
[10] = tested on: NCI-H226
[11] = tested on: UACC-62
[12] = tested on: SW-620
[13] = tested on: SK-MEL-28
[14] = tested on: SF-539
[15] = tested on: SF-268
[16] = tested on: NCI-H522
[17] = tested on: CCRF-CEM
[18] = tested on: SF-295
[19] = tested on: A498
[20] = tested on: SNB-78
[21] = tested on: M19-MEL
[22] = tested on: IGROV-1
[23] = tested on: 786-0
[24] = tested on: LXFL 529
[25] = tested on: OVCAR-3
[26] = tested on: U-251
[27] = tested on: DLD-1
[28] = tested on: SN12C
[29] = tested on: OVCAR-8
[30] = tested on: DMS-114
[31] = tested on: A549
[32] = tested on: HOP-92
[33] = tested on: HCT-116
[34] = tested on: ACHN
[35] = tested on: HCT-15
[36] = tested on: MCF7
[37] = tested on: K562
[38] = tested on: SNB-75
[39] = tested on: BT-549
[40] = tested on: HT-29
[41] = tested on: RXF 393
[42] = tested on: HCC 2998
[43] = tested on: RPMI-8226
[44] = tested on: M14
[45] = tested on: T47D
[46] = tested on: SK-MEL-5
[47] = tested on: SR
[48] = tested on: PC-3
[49] = tested on: NCI/ADR-RES
[50] = tested on: DU-145
[51] = tested on: KM12
[52] = tested on: CAKI-1
[53] = tested on: SNB-19
[54] = tested on: MDA-MB-435
[55] = tested on: NCI-H23
[56] = tested on: EKVX
[57] = tested on: MDA-N
[58] = tested on: OVCAR-5
[59] = tested on: OVCAR-4
[60] = tested on: HL-60
[61] = tested on: SK-MEL-2
[62] = tested on: MOLT-4
[63] = tested on: Hs-578T
[64] = tested on: UO-31
[65] = tested on: MDA-MB-231
[66] = tested on: DMS-273
[67] = tested on: HOP-18

CCCCCCCCCCCCCB(O)O
GI50 [1]: 60.7 µM (inactive)
GI50 [2]: > 100 µM (inactive)
GI50 [3]: > 100 µM (inactive)
GI50 [4]: > 100 µM (inactive)
GI50 [5]: > 100 µM (inactive)
GI50 [6]: 85.5 µM (inactive)
GI50 [7]: > 100 µM (inactive)
GI50 [8]: > 100 µM (inactive)
GI50 [9]: > 100 µM (inactive)
GI50 [10]: 96.2 µM (inactive)
GI50 [11]: > 100 µM (inactive)
GI50 [12]: 61.5 µM (inactive)
GI50 [13]: > 100 µM (inactive)
GI50 [14]: > 100 µM (inactive)
GI50 [15]: 69.2 µM (inactive)
GI50 [16]: 51.3 µM (inactive)
GI50 [17]: 57.8 µM (inactive)
GI50 [18]: > 100 µM (inactive)
GI50 [19]: 50.2 µM (inactive)
GI50 [20]: 58.1 µM (inactive)
GI50 [21]: > 100 µM (inactive)
GI50 [22]: > 100 µM (inactive)
GI50 [23]: 95.5 µM (inactive)
GI50 [24]: 81.8 µM (inactive)
GI50 [25]: 50.7 µM (inactive)
GI50 [26]: 60.4 µM (inactive)
GI50 [27]: 65.2 µM (inactive)
GI50 [28]: 66.2 µM (inactive)
GI50 [29]: > 100 µM (inactive)
GI50 [30]: 65.5 µM (inactive)

COc1cc(C2c3cc4c(cc3OC(NNC(N)=O)C2C)OCO4)cc(OC)c1O (stereo unspecified)
GI50 [31]: 3.45 µM (inactive)
GI50 [32]: 15.3 µM (inactive)
GI50 [33]: 1.58 µM (inactive)
GI50 [2]: 13.8 µM (inactive)
GI50 [3]: 3.19 µM (inactive)
GI50 [34]: 5.93 µM (inactive)
GI50 [4]: 0.615 µM (active)
GI50 [35]: 13 µM
GI50 [36]: 1.64 µM (inactive)
GI50 [37]: 0.433 µM (active)
GI50 [38]: 0.805 µM (active)
GI50 [39]: 24.5 µM (inactive)
GI50 [40]: 3.13 µM (inactive)
GI50 [5]: 3.11 µM (inactive)
GI50 [41]: 0.598 µM (active)
GI50 [42]: 2.54 µM (inactive)
GI50 [43]: 1.64 µM (inactive)
GI50 [44]: 2.73 µM (inactive)
GI50 [6]: 2.12 µM (inactive)
GI50 [45]: > 100 µM (inactive)
GI50 [7]: 2.59 µM (inactive)
GI50 [46]: 0.91 µM (active)
GI50 [8]: 4.06 µM (inactive)
GI50 [9]: 5.48 µM (inactive)
GI50 [10]: 6.65 µM (inactive)
GI50 [11]: 0.512 µM (active)
GI50 [12]: 1.2 µM (inactive)
GI50 [13]: 27.4 µM (inactive)
GI50 [47]: 1.12 µM (active)
GI50 [48]: 1.67 µM (inactive)
GI50 [49]: 21.3 µM (inactive)
GI50 [50]: 3.96 µM (inactive)
GI50 [51]: 0.813 µM (active)
GI50 [14]: 0.933 µM (active)
GI50 [15]: 8.26 µM (inactive)
GI50 [16]: 0.285 µM (active)
GI50 [17]: 2.5 µM (inactive)
GI50 [52]: 7.91 µM (inactive)
GI50 [53]: 7.29 µM (inactive)
GI50 [18]: 1.04 µM (active)
GI50 [19]: 3.41 µM (inactive)
GI50 [54]: 0.324 µM (active)
GI50 [55]: 4.92 µM (inactive)
GI50 [22]: 1.62 µM (inactive)
GI50 [23]: 2.99 µM (inactive)
GI50 [56]: > 28.4 µM (inactive)
GI50 [57]: 0.274 µM (active)
GI50 [58]: 6.59 µM (inactive)
GI50 [59]: > 43.9 µM (inactive)
GI50 [60]: 0.867 µM (active)
GI50 [61]: 6.18 µM (inactive)
GI50 [62]: 2.58 µM (inactive)
GI50 [25]: 1.03 µM (active)
GI50 [26]: 2.1 µM (inactive)
GI50 [63]: 2.22 µM (inactive)
GI50 [64]: 8.04 µM (inactive)
GI50 [28]: 4.9 µM (inactive)
GI50 [29]: 4.5 µM (inactive)
GI50 [65]: 5.05 µM (inactive)

O=C1N/C(=N\N=C\c2ccccc2)C(c2ccccc2)O1 (stereo unspecified)
GI50 [31]: 45.3 µM (inactive)
GI50 [32]: > 100 µM (inactive)
GI50 [33]: 37.3 µM (inactive)
GI50 [2]: 24 µM (inactive)
GI50 [3]: 66.1 µM (inactive)
GI50 [34]: 53.5 µM (inactive)
GI50 [4]: > 100 µM (inactive)
GI50 [35]: 19.8 µM
GI50 [36]: 68.4 µM (inactive)
GI50 [37]: 35.8 µM (inactive)
GI50 [38]: < 0.01 µM (active)
GI50 [39]: 33 µM (inactive)
GI50 [40]: 53 µM (inactive)
GI50 [5]: > 100 µM (inactive)
GI50 [41]: 80 µM (inactive)
GI50 [42]: 17.1 µM (inactive)
GI50 [43]: 34.4 µM (inactive)
GI50 [44]: 54 µM (inactive)
GI50 [6]: 38.4 µM (inactive)
GI50 [45]: 79.8 µM (inactive)
GI50 [7]: 40.9 µM (inactive)
GI50 [46]: 66.8 µM (inactive)
GI50 [8]: 42.8 µM (inactive)
GI50 [9]: 65.6 µM (inactive)
GI50 [10]: 30.9 µM (inactive)
GI50 [11]: 75.7 µM (inactive)
GI50 [12]: 59.4 µM (inactive)
GI50 [13]: > 100 µM (inactive)
GI50 [47]: 23.6 µM (inactive)
GI50 [48]: 61.8 µM (inactive)
GI50 [49]: 33.3 µM (inactive)
GI50 [50]: 53 µM (inactive)
GI50 [51]: > 100 µM (inactive)
GI50 [14]: > 100 µM (inactive)
GI50 [15]: 52.2 µM (inactive)
GI50 [16]: > 100 µM (inactive)
GI50 [17]: 12.7 µM (inactive)
GI50 [52]: 74.1 µM (inactive)
GI50 [53]: > 100 µM (inactive)
GI50 [18]: 42.5 µM (inactive)
GI50 [19]: 99.3 µM (inactive)
GI50 [54]: > 100 µM (inactive)
GI50 [55]: > 100 µM (inactive)
GI50 [22]: > 100 µM (inactive)
GI50 [23]: 47.9 µM (inactive)
GI50 [56]: 66.8 µM (inactive)
GI50 [57]: > 100 µM (inactive)
GI50 [58]: > 100 µM (inactive)
GI50 [59]: 38.5 µM (inactive)
GI50 [60]: 30.1 µM (inactive)
GI50 [61]: > 100 µM (inactive)
GI50 [62]: 25.5 µM (inactive)
GI50 [25]: 27.4 µM (inactive)
GI50 [26]: 58.9 µM (inactive)
GI50 [63]: > 100 µM (inactive)
GI50 [64]: 15.9 µM (inactive)
GI50 [28]: 71.1 µM (inactive)
GI50 [29]: 47.5 µM (inactive)
GI50 [65]: 88.5 µM (inactive)

C=C(C=O)CCCC(C)[C@@H]1CCC23CC12CCC1[C@@]2(C)CCC(OC(C)=O)C(C)(C)C2CC(OC2OC(COC(C)=O)C(O)C(O)C2O)[C@]13C (stereo partly specified)
GI50 [31]: 6.34 µM (inactive)
GI50 [1]: 6.5 µM (inactive)
GI50 [32]: 6.22 µM (inactive)
GI50 [33]: 0.809 µM (active)
GI50 [2]: 6.58 µM (inactive)
GI50 [3]: 5.7 µM (inactive)
GI50 [34]: 4.51 µM (inactive)
GI50 [4]: 2 µM (inactive)
GI50 [35]: 1.56 µM
GI50 [37]: 1.44 µM (inactive)
GI50 [38]: 5.68 µM (inactive)
GI50 [40]: 5.43 µM (inactive)
GI50 [5]: 6.15 µM (inactive)
GI50 [41]: 5.6 µM (inactive)
GI50 [42]: 7.53 µM (inactive)
GI50 [43]: 0.859 µM (active)
GI50 [44]: 1.47 µM (inactive)
GI50 [6]: 7.69 µM (inactive)
GI50 [7]: 7.82 µM (inactive)
GI50 [46]: 5.58 µM (inactive)
GI50 [8]: 0.807 µM (active)
GI50 [9]: 7.87 µM (inactive)
GI50 [10]: 6.43 µM (inactive)
GI50 [66]: 5.82 µM (inactive)
GI50 [11]: 1.08 µM (active)
GI50 [12]: 0.798 µM (active)
GI50 [13]: 0.845 µM (active)
GI50 [67]: 9.64 µM (inactive)
GI50 [51]: 3.39 µM (inactive)
GI50 [14]: 5.7 µM (inactive)
GI50 [15]: 5.43 µM (inactive)
GI50 [16]: 0.843 µM (active)
GI50 [17]: 1.03 µM (active)
GI50 [52]: 5.25 µM (inactive)
GI50 [53]: 7.1 µM (inactive)
GI50 [18]: 5.83 µM (inactive)
GI50 [19]: 6.85 µM (inactive)
GI50 [20]: 1.14 µM (inactive)
GI50 [55]: 7.82 µM (inactive)
GI50 [22]: 2.15 µM (inactive)
GI50 [23]: 6.87 µM (inactive)
GI50 [56]: 7.33 µM (inactive)
GI50 [24]: 2.66 µM (inactive)
GI50 [58]: 5.98 µM (inactive)
GI50 [59]: 5.14 µM (inactive)
GI50 [60]: 0.643 µM (active)
GI50 [61]: 7.4 µM (inactive)
GI50 [62]: 0.861 µM (active)
GI50 [25]: 2.72 µM (inactive)
GI50 [26]: 2.72 µM (inactive)
GI50 [64]: 5.42 µM (inactive)
GI50 [28]: 1.58 µM (inactive)
GI50 [29]: 4.38 µM (inactive)
